Earlier results on one compound are cited in US12350277B2, “Compositions and methods of use for treating aberrant inflammation in peri-ocular secretory glands or at the ocular surface” (CS Pharmaceuticals Limited, priority 2017, dated 2025).

Each structure is given as a SMILES string.

The subject of this data set is NFκB pathway. To be noted: A549, HeLa, MG63, 16HBE, and H9 cell lines; IL-1β / TNFα stimulation; cited from earlier work.

In the case of `CCC(=O)O[C@]1(C(=O)SCF)[C@H](C)C[C@H]2[C@@H]3C[C@H](F)C4=CC(=O)C=C[C@]4(C)[C@@]3(F)[C@@H](O)C[C@@]21C` [FP, fluticasone propionate, reference compound], the “transrepression of NFκB pathway activation (IL-6, IL-8 release)” value is “potently and efficiently transrepress”.
